By EC50 is commonly meant the concentration giving half of the maximal effect.

One assay addresses T1, hGPR65 (Homo sapiens, UniProt Q8IYL9).
T1 construct: expressed in transfected cells; host or cells: HeLa (ATCC CCL-2), lentiviral transduction, pLX317
The assay can be described thus: cAMP detection (Lance Ultra), GPR65 KO HeLa reconstituted with hGPR65; 21K screen dose confirmation. The note with it: HeLa GPR65 KO + hGPR65, pH 7.1, 30 min, normalized to DMSO and 100 μM forskolin; read-out: WT EC50. It is filed as cell-based. The method, then: (§1) The Lance Ultra cAMP Kit (PerkinElmer, TRF0264) was used for cAMP detection, and included the following reagents: ULight anti-cAMP antibody, Eu-cAMP tracer, 7.5% BSA Stabilizer solution, and cAMP detection buffer. Stimulation buffer was prepared as described by the kit manufacturer as follows: Hanks buffered saline solution (HBSS, Life Technologies, 14025-126) containing 0.5 mM IBMX (3-isobutyl-1-methylxanthine, Sigma-Aldrich, I7018) and buffered with 1 M Hepes (15630-080). Stimulation buffer was then adjusted to pH 7.1 using 12 N HCl. HeLa cells were lifted using Versene and then suspended at 2.5 × 10^5 cells/ml in stimulation buffer. Cells were then plated at 20 μl per well (5000 cells per well) in white, opaque OptiPlate 384-well MicroPlates (PerkinElmer, 6007299) using a Thermo Fisher Scientific Combi liquid dispenser. Compounds, stored at 5 mM in DMSO for the primary screen, or in a range of concentrations from 39 μM to 20 mM for dose curves, were transferred by the CyBio CyBi-Well Vario pin transfer tool with 100-nl pins (V&P FP1NS50H, 50-nl slot, 0.457-mm diameter, hydrophobic coated), into each assay well, 100 nl per well for a final assay concentration of 25 μM for the primary screen, or 195 nM to 100 μM for dose curves. Assay plates were then incubated at RT for 30 min. Eu-cAMP tracer was diluted 1:33 into detection buffer and the final solution then distributed into assay wells, 5 μl per well. ULight anti-cAMP antibody was diluted 1:100 into detection buffer, then distributed into assay wells, also 5 μl per well. Assay plates were then incubated at RT in the dark for 1 hour. Eu-cAMP tracer and Förster resonance energy transfer (FRET) emissions were then read using a PerkinElmer EnVision Multimode plate reader (ENVISION21040010), exciting each well at 320 nm [UV2 (TRF) 320 filter] and reading emissions at 615 nm (Europium 615 filter) and 665 nm (APC665 filter). Data analysis was performed using Genedata Screener and GraphPad Prism.
(§2) HeLa KO cell lines were generated using the px330 plasmid CRISPR system as previously described ([18]). Briefly, HeLa cells were transfected with a Cas9 vector containing a gene-specific single-guide RNA to target the GPR65 coding exon. Forty-eight to 72 hours after transfection, single clones were obtained through limiting dilution and then sequenced to validate the KO. Reconstituted cell lines were produced by transducing KO cells with empty lentivirus or lentivirus containing hGPR65 or mGPR65. After 48 hours, cells were treated with puromycin (3 μg/ml; InvivoGen, ant-pr-1) and resistant cells were used in experiments.

Assay [1] relates to GPR65 KO HeLa cells + pLX empty vector. Briefly: cAMP detection, GPR65 KO HeLa + empty pLX vector (null control). In kind it is cell-based, human. The conditions noted are these: HeLa GPR65 KO + pLX, pH 7.1, 30 min, normalized to DMSO and 100 μM forskolin. Here is the method:
as §1, §2

T1 sequence (Q8IYL9 whole entry): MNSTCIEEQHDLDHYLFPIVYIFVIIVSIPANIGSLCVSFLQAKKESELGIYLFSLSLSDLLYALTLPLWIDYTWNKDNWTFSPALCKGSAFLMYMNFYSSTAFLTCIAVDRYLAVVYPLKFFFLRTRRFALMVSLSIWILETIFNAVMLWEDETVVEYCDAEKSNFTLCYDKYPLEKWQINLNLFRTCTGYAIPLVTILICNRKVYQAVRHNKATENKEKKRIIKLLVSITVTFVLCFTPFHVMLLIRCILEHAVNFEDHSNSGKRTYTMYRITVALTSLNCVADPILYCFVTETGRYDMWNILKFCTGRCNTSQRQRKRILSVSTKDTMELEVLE

For the compound `CC(Sc1nc2ncnc(N)c2[nH]1)C(=O)O` (stereo not drawn) [BRD-A18106607-001-02-5], the figures for the EC50 (on hGPR65; in assay [1]) were 6 µM and 6.4 µM, respectively.
For `Cc1cnccc1CN1CC(C(=O)O)CC1=O` (stereo not drawn) [BRD-A19095755-001-02-9] the same measures were 20.1 µM and 16.9 µM.
For `CCCCC(CC)C(=O)Oc1ccc2c(c1)oc(=O)c1ccccc12` (stereo not drawn) [BRD-A19872532-001-02-1] the same measures were more than 100 µM and more than 100 µM.
Turning to `CCN1CCCc2cc(-c3cncn3C(C)CN3CCOCC3)ccc21` (stereo not drawn) [BRD-A40378740-001-02-0], the half-maximal effective concentration (EC50) (on hGPR65; in assay [1]) was more than 100 µM throughout.
On to `CC(=O)N1CCCC(CCCc2ccncc2)(C(=O)O)C1` (stereo not drawn) [BRD-A44875014-001-02-0], for which the 50% effective concentration (EC50) at hGPR65 came out at 13.2 µM; in assay [1] it was 14.7 µM.
In the case of `CN1CCN(c2ccnc3ccccc23)CC1C(=O)O` (stereo not drawn) [BRD-A45312230-001-02-1], the EC50 at hGPR65 was 1.2 µM; in assay [1], 1.3 µM.
`CC(NC(=O)c1ccc2ncccc2c1)c1cc(=O)[nH]c(N2CCN(C)CC2)n1` (stereo not drawn) [BRD-A49179268-001-02-5]: the EC50 at hGPR65 was found to be 83.4 µM; in assay [1] it was 67.5 µM.
As for `Clc1ccc2c(N3CCCC4(CCNC4)C3)ccnc2c1` (stereo not drawn) [BRD-A50085437-001-02-6], the half-maximal effective concentration (EC50) was determined as 26.2 µM on hGPR65 and 33.5 µM in assay [1].
`Cc1cc(C)n(CC(O)CN(Cc2ccco2)Cc2cccc3ncccc23)n1` (stereo not drawn) [BRD-A63170499-001-02-6]: the EC50 (on hGPR65; in assay [1]) was more than 100 µM in each case.
On to `O=S1(=O)CCC(Cn2cc(-c3ccnc4ccccc34)nn2)C1` (stereo not drawn) [BRD-A69528226-001-02-9], for which the figures for the concentration for a half-maximal effect (EC50) (on hGPR65; in assay [1]) were 19.9 µM and 17 µM, respectively.
As for `Cc1nc(C2CCCNC2)cc(N(C)Cc2cccc3cnccc23)n1` (stereo not drawn) [BRD-A78843635-001-02-6], the figures for the EC50 (on hGPR65; in assay [1]) were more than 100 µM and 95.8 µM, respectively.
For the compound `O=C1CC(N2CCN(c3ncccn3)CC2)C(=O)N1c1ccccc1` (stereo not drawn) [BRD-A87117975-001-02-2], the EC50 at hGPR65 was determined as 71.1 µM; in assay [1], 54.8 µM.
Take `CN(C)CCOC(=O)C1CC2=C(CCCC2(C)C)CC1C(=O)O` (stereo not drawn) [BRD-A91973386-001-02-5]: the EC50 at hGPR65 turned out to be 59.6 µM; in assay [1], 70.7 µM.
For the compound `COc1ccc(S(=O)(=O)N2C[C@@H](N)[C@H](c3cn(C)c4cnccc34)C2)cc1` [BRD-K00063734-001-02-2], the concentration giving a half-maximal response (EC50) was found to be 73.6 µM at hGPR65 and 63.2 µM in assay [1].
In the case of `O=C(O)CCSCCc1ccncc1` [BRD-K06534048-001-02-7], the concentration giving a half-maximal response (EC50) on hGPR65 was 37.8 µM; in assay [1], 29.3 µM.
Regarding `CS(=O)(=O)N1CCN(c2ccnc3cc(Cl)ccc23)CC1` [BRD-K06900104-001-09-6], the results for the EC50 (on hGPR65; in assay [1]) were 27.5 µM and 23 µM, respectively.
In the case of `Cc1cnc(N)c(C(=O)C2CCN(C(=O)c3cnc(C)nc3C)CC2)c1` [BRD-K07158347-001-02-2], the figures for the half-maximal effective concentration (EC50) (on hGPR65; in assay [1]) were 18.3 µM and 17 µM, respectively.
For `Nc1cccnc1Sc1nc2cccnc2s1` [BRD-K10062067-001-02-9], the concentration for a half-maximal effect (EC50) (on hGPR65; in assay [1]) was more than 100 µM throughout.
On to `Nc1ccc2c(C(F)(F)F)cc(=O)oc2c1` [BRD-K20841137-001-08-7], for which the concentration for a half-maximal effect (EC50) (at hGPR65; in assay [1]) was more than 100 µM throughout.
On to `COc1cc(Br)c(-c2cc3ccccc3oc2=O)cc1OC` [BRD-K22294093-001-02-2], for which the EC50 (on hGPR65; in assay [1]) was less than 10 µM throughout.
On to `CCN1C[C@@H](COC)[C@]2(CCN(C(=O)N3CCCC3)C2)C1` [BRD-K23021624-001-01-8], for which the EC50 (on hGPR65; in assay [1]) was more than 100 µM in each case.
As for `COC(=O)Nc1nc2ccc(-c3n[nH]c(=O)c4ccccc34)cc2[nH]1` [BRD-K25806464-001-09-6], the 50% effective concentration (EC50) (at hGPR65; in assay [1]) was less than 10 µM each time.
In the case of `O=C(c1ccc2nc[nH]c2c1)N1CCC(CCOc2ccccc2)(C(=O)O)CC1` [BRD-K25972060-001-03-7], the values for the concentration for a half-maximal effect (EC50) (on hGPR65; in assay [1]) were 4.6 µM and 4.9 µM, respectively.
For `O=c1c(-c2ccccc2)nnc2sc(-c3ccc4c(c3)OCCO4)nn12` [BRD-K26812102-001-02-6], the EC50 (on hGPR65; in assay [1]) was more than 100 µM throughout.

The values above are taken from paper PMC11259170, “Small-molecule probe for IBD risk variant GPR65 I231L alters cytokine signaling networks through positive allosteric modulation” (Science Advances, 2024).
